The test system of data set [1] is CFLP-Mäusen. As to the kind of experiment: Inhibition of pentamethylenetetrazole (pentetrazole) convulsion. It is filed as in vivo. To be noted: Mus musculus, sc; 20 mg/kg peroral, 1 hour after dosing, groups of 10 mice; 125 mg/kg Pentamethylentetrazol subcutaneous; read-out: Hemmwirkung in % in Bezug auf den Pentamethylentetrazolkrampf tonischen Streckkrampf. The text has this: (§1) Die pharmakologischen Wirkungen der erfindungsgemäßen Tetrahydro-1,2,4-oxadiazin-5-onderivate der allgemeinen Formel I wurden in Tierversuchen nach den üblichen pharmakologischen Verfahrensweisen nachgewiesen, wobei als Vergleichssubstanzen die anerkannt gut wirksamen bekannten Handelsprodukte 5,5-Diphenylhydantoin [Vergleichssubstanz A] und 3-Methyl-5-äthyl-5-phenylhydantoin [Vergleißhssubstanz B] gleicher Wirkungsrichtung verwendet wurden. Die Tierversuche wurden mit CFLP-Mäusen (LATI, Gödöllo, Ungarn) von gemischtem Geschlecht (Körpergewicht: 18 bis 22 g) mit Gruppen von je 10 Tieren durchgeführt. Die zu untersuchenden Verbindungen wurden in einer 5%-igen wäßrigen Lösung von Polyoxyäthylensorbitanmonooleat [Tween 80® suspendiert und diese Suspensionen wurden.auf peroralem Wege mit einer Sonde den Tieren verabreicht. Die Wirkstoffe wurden in den zur Untersuchung der krampfhemmenden beziehungsweise antikonvulsiven Wirkung durchgeführten Versuchen in Dosen von 20 mg/kg Körpergewicht und zur Messung der neurotoxischen Wirkung in Dosen von 80 mg/kg Körpergewicht verabreicht. Die Wirkungen wurden 1 Stunde nach der Verabreichung durch die im folgenden beschriebenen Verfahrensweisen gemessen.
b) Hemmwirkung gegen den Pentamethylentetrazolkrampf [Pentetrazolkrampf]
Es wurden 125 mg Pentamethylentetrazol/kg Körpergewicht nach der Verfahrensweise von Cr. N. Everett und R. K. Richards (J. Pharmacol. Exp: Therap. 81 [1944], 402) den Tieren subkutan verabreicht. 1 Stunde nach der Verabreichung des zu untersuchex den Wirkstoffes wurde die Wirkung beobachtet: Als Schutiwirkung wurde das Unterbleiben des klonischen Krampfes beriehungsweise des tonischen Streckkrampfes der hinteren GliedmaBen bewertet.

The nature of another data set: Acute toxicity (LD50). To be noted: mouse, in vivo, po; single peroral dose, 14 days observation, mice; read-out: Peroraler LD50-Wert (converted).
Source text: as §1
Die Toxizität der zu untersuchenden Verbindungen wurde nach 1-maliger Verabreichung von verschiedenen Dosen durch 14 Tage lange Beobachtung der Tiere ermittelt. Die LD50-Werte (die bei 50% der Tiere tödlichen Dosen) wurden auf Grund des Prozentsatzes der innerhalb 14 Tage verendeten Tiere berechnet.

Data set [2] deals with CFLP-Mäusen. As to the kind of experiment: Maximal electroshock [MES] anticonvulsant test. Type of data set: in vivo. The settings on record: Mus musculus, po; 20 mg/kg peroral, measured 1 hour after dosing, groups of 10 mice; corneal electrode 20 mA, 0,2 s; protection = absence of tonic hindlimb extension; read-out: Hemmwirkung in % in Bezug auf den maximalen Elektroschock.
Source text: as §1
a) Maximaler Elektroschock [MES]
Die Tiere wurden nach der Verfahrensweise von E. A. Swinyard und Mitarbeitern (J. Pharmacol. 106 [1952], 319) mit einer Hornhautelektrode beziehungsweise Corneal--Elektrode (20 mA, 0,2 Sekunde) geschockt. 100% der Blindversuchs- beziehungsweise Kontrolltiere reagierten auf diesen Reiz mit einem tonischen Streckkrampf (extensorischen Krampf) der hinteren Gliedmaßen. Das Unterbleiben dieser Reaktion wurde als unter der Wirkung der Behandlung eingetretener Schutz gewertet.
A general note: The maximal electroshock test induces tonic seizures with an electrical stimulus.

The structures appear in SMILES notation.

As for `CC(=O)N1OC(Cc2ccccc2)C(=O)NC1c1ccccc1` (racemic) [Beispiel 60], the responders at 20 mg/kg with CFLP-Mäusen [1] stood at 20%. Besides, the median lethal dose (LD50) – broadly, the dose expected to kill half of the subjects tested – at 336 h in “Acute toxicity (LD50)” was 1000 mg/kg.
Take `CC(=O)N1OCC(=O)N(C(C)=O)C1c1ccccc1` (stereo not drawn) [Beispiel 8, 2,4-Diacetyl-3-phenyltetrahydro-1,2,4-oxadiazin-5-on]: the figures for the responders at 20 mg/kg in the data set with CFLP-Mäusen [1] and in the data set with CFLP-Mäusen [2] were 40% and 60%, respectively. In addition, in “Acute toxicity (LD50)”, the LD50 at 336 h is 1000 mg/kg.
In the same order, the values of `O=C1CONC(c2ccc(O)cc2)N1` (stereo not drawn) [Beispiel 63] are 20%, 40% and 800 mg/kg.
In the case of `O=C1NC(=O)C(c2ccccc2)(c2ccccc2)N1` [Vergleichssubstanz A, 5,5-Diphenylhydantoin, reference compound], the responders at 20 mg/kg with CFLP-Mäusen [1] came out at 80%; in the data set on CFLP-Mäusen [2] it was 90%. Also, in the data set “Acute toxicity (LD50)”, the LD50 at 336 h was 279 mg/kg.
On to `CCC1(c2ccccc2)NC(=O)N(C)C1=O` (stereo not drawn) [Vergleichssubstanz B, 3-Methyl-5-äthyl-5-phenylhydantoin, reference compound], for which the responders at 20 mg/kg in the data set on CFLP-Mäusen [1] was 50%; in the data set on CFLP-Mäusen [2], 10%. Also, the LD50 at 336 h in the data set “Acute toxicity (LD50)” was 476 mg/kg.
For `CC(=O)N1OCC(=O)NC1c1ccccc1` (stereo not drawn) [Beispiel 2, 2-Acetyl-3-phenyltetrahydro-1,2,4-oxadiazin-5-on], the responders at 20 mg/kg with CFLP-Mäusen [1] was 90%; in the data set with CFLP-Mäusen [2], 70%. For the same molecule, the LD50 at 336 h in “Acute toxicity (LD50)” was 1190 mg/kg.
`CC(=O)N1OCC(=O)NC1c1ccc(C(=O)O)cc1` (stereo not drawn) [Beispiel 84]: in the data set “Acute toxicity (LD50)”, the LD50 at 336 h was 1000 mg/kg. For the same molecule, in the data set with CFLP-Mäusen [2], the responders at 20 mg/kg came to 40%.
As to `CC(=O)N1OC(C)C(=O)NC1c1ccccc1` (racemic) [Beispiel 61, 2-Acetyl-3-phenyl-6-methyltetrahydro-1,2,4-oxadiazin-5-on], the figures for the responders at 20 mg/kg with CFLP-Mäusen [1] and in the data set with CFLP-Mäusen [2] were 50% and 20%, respectively. Also, in “Acute toxicity (LD50)”, the LD50 at 336 h was 1000 mg/kg.
Consider `CC(=O)N1OCC(=O)NC1c1ccc(F)cc1` (stereo not drawn) [Beispiel 13, 2-Acetyl-3-(4'-fluorphenyl)-tetrahydro-1,2,4-oxadiazin-5-on], for which the responders at 20 mg/kg in the data set with CFLP-Mäusen [1] and in the data set with CFLP-Mäusen [2] was 40% each time. Further, the LD50 at 336 h in “Acute toxicity (LD50)” was 800 mg/kg.
`CC(=O)N1OCC(=O)NC1c1cccc2ccccc12` (stereo not drawn) [Beispiel 15]: the LD50 at 336 h in the data set “Acute toxicity (LD50)” is 800 mg/kg. Moreover, in the data set with CFLP-Mäusen [2], the responders at 20 mg/kg was 40%.
Regarding `CC(=O)N1OCC(=O)NC1c1cccs1` (stereo not drawn) [Beispiel 16], the responders at 20 mg/kg with CFLP-Mäusen [1] was found to be 40%; in the data set on CFLP-Mäusen [2], 20%. Also, the LD50 at 336 h in “Acute toxicity (LD50)” is 800 mg/kg.
For `CC(=O)N1OCC(=O)NC12CCCCC2` [Beispiel 83], the LD50 at 336 h in “Acute toxicity (LD50)” was 1000 mg/kg. Besides, the responders at 20 mg/kg in the data set with CFLP-Mäusen [2] was 40%.
Take `CC(=O)N1OCC(=O)NC1c1ccc(Br)cc1` (stereo not drawn) [Beispiel 14]: the LD50 at 336 h in the data set “Acute toxicity (LD50)” was 800 mg/kg. Moreover, the responders at 20 mg/kg in the data set on CFLP-Mäusen [2] worked out at 40%.
Consider `CCOC(=O)N1OCC(=O)NC1c1ccccc1` (stereo not drawn) [Beispiel 89], for which the responders at 20 mg/kg with CFLP-Mäusen [1] turned out to be 20%. Further, the LD50 at 336 h in “Acute toxicity (LD50)” is 1000 mg/kg.

The values are drawn from patent publication EP0055490A1, “Tetrahydro-1,2,4-oxadiazin-5-one derivatives, processes for their preparation and medicines containing these compounds” (RICHTER GEDEON VEGYÉSZETI GYÁR RT, priority 1980, dated 1982).
